The test system of test [1] is iPS cell-derived CAR-T cells. Particulars: 0.3 mM boric acid added to 1% FBS-containing medium; FIG. 1. From the text:
Then, on the fifth day of culture, some of the cells were recovered from G-Rex (registered trademark) 10M and the cells were counted, and the medium was replaced with the respective medium. On the sixth day of culture, some of the cells were recovered from G-Rex (registered trademark) 10M and the cells were counted. […] On the 12th and 14th days of culture, some of the cells were similarly collected from the G-Rex (registered trademark) 24-well plate, counted, and the medium was replaced with each medium.

Test [2] relates to iPS cell-derived CAR-T cells. Briefly: Proliferation test, ITS-X and taurine added to 0.3 mM boric acid-containing serum-free medium. Type of test: cell-based. As to conditions: for viability (%): serum-free expansion medium, boric acid 0.3 mM. As to the method:
A total of five types of expansion culture media were prepared: Advanced DMEM/F12 medium (Thermo Fisher) containing additives shown in the “expansion culture medium” column in Table 4, and said medium further added with either 0.3 mM boric acid (Sigma-Aldrich), 0.3 mM boric acid and 1×ITS-X ((Insulin-Transferrin-Selenium-Ethanolamine Supplements) Gibco), 0.3 mM boric acid and 1×ITS-X and 1 mM taurine (Sigma-Aldrich), or 0.3 mM boric acid and 1×ITS-X and 3 mM taurine (medium supplemented with only additives in Table 4, medium supplemented with additives in Table 4+0.3 mM boric acid, medium supplemented with additives in Table 4+0.3 mM boric acid+ITS-X, medium supplemented with additives in Table 4+0.3 mM boric acid+ITS-X+1 mM taurine, medium supplemented with additives in Table 4+0.3 mM boric acid+ITS-X+3 mM taurine). After 3 days of activation culture, the cells were collected from the T225 flask and suspended in each of the five types of expansion culture media at 40,000 cells/mL, and cultured under 5% CO2/37° C. using G-Rex (registered trademark) 10M (Wilson Wolf). Then, on the fifth day of culture, some of the cells were recovered from G-Rex (registered trademark) 10M and the cells were counted, and the medium was replaced with the respective medium. On the sixth day of culture, some of the cells were recovered from G-Rex (registered trademark) 10M and the cells were counted. On the 7th and 10th days of culture, some of the cells were recovered from the plate, counted, and seeded onto a G-Rex (registered trademark) 24-well plate (Wilson Wolf) containing each medium at 50,000 cells/mL. On the 12th and 14th days of culture, some of the cells were similarly collected from the G-Rex (registered trademark) 24-well plate, counted, and the medium was replaced with each medium.
In the expansion culture of item 5 in Example 4, the cell number and viability of iPS cell-derived CAR-T cells were measured on days 3, 5, 6, 7, 10, 12, and 14 of culture.

The test system of test [3] is iPS cell-derived CAR-T cells. Particulars: 0.3 mM boric acid added to serum-free medium; FIG. 2.
Experimental: After 3 days of activation culture, the cells were collected from the T225 flask and suspended in each of the two types of expansion culture media at 40,000 cells/mL, and cultured under 5% CO2/37° C. using G-Rex (registered trademark) 10M (Wilson Wolf). Then, on the fifth day of culture, some of the cells were collected from G-Rex (registered trademark) 10M and counted, and the medium was replaced with each medium. On the 7th and 10th days of culture, the cells were counted by a similar method, seeded in a G-Rex (registered trademark) 24-well plate at 50, 000 cells/mL, and cultured in each medium. On the 12th and 14th days of culture, some of the cells were similarly collected from the plate, counted, and the medium was replaced with each medium.
Test [4] deals with iPS cell-derived CAR-T cells. As to conditions: boric acid concentration range of 0.2 mM to 0.9 mM, serum-free medium; FIG. 3.
Experimental: After 3 days of activation culture, the cells were collected from the T225 flask and suspended in each of the five types of expansion culture media at 50,000 cells/mL, and cultured under 5% CO2/37° C. using G-Rex (registered trademark) 24-well plate (Wilson Wolf). Then, on the fifth day of culture, some of the cells were recovered from G-Rex (registered trademark) 24-well plate and the cells were counted, and the medium was replaced with the respective medium. On the 7th day of culture, the cells were counted by a similar method, seeded in a fresh G-Rex (registered trademark) 24-well plate at 50,000 cells/mL, and cultured in each medium. On the 10th and 12th days of culture, some of the cells were similarly collected from the plate, counted, and the medium was replaced with each medium.
Test [5] has as its system human-derived primary T cell-derived CAR-T cells. As to conditions: boric acid 0.3 mM added to serum-free medium (BM220720); FIG. 5.

The structures appear in SMILES notation. Like-named read-outs stand apart in the source and are kept apart here.

Regarding `OB(O)O` [Boric acid, boric acid], the “proliferation (cell proliferation fold from day 0 of expansion culture)” value in test [1], in test [3] and in test [5] was “promoted” in each case. The “viability (%)” value in test [2] (Day 5) is given as 88.7%; in test [2] (Day 6), 88.6%; in test [2] (Day 7) it was 87.5%; in test [2] (Day 10), 90.3%; in test [2] (Day 12), 90.4%; in test [2] (Day 14), 88.3%. Also, the cell viability entry in test [4] is listed as “not influenced”.
Regarding `NCCS(=O)(=O)O` [Taurine, taurine], the “maximum difference (%) in viability between (3): without addition of Taurine and (4) or (5): with addition of Taurine” value in test [2] (Day 5) was determined as 2.9%; in test [2] (Day 6), 1.6%; in test [2] (Day 7), 2.5%; in test [2] (Day 10) it was 3.7%; in test [2] (Day 12) it was 1.9%; in test [2] (Day 14), 1.3%.

The record behind these values is patent US20250382574A1, “CELL CULTURE METHOD” (Takeda Pharmaceutical Company Limited, priority 2022, published 2025).
